Results as given in US20240066051A1 (priority 2022, published 2024).

What was measured:
S-protein RBD (WT) = molecular target: T1, S-protein RBD (WT) (Severe acute respiratory syndrome coronavirus 2, UniProt P0DTC2); assay type: binding, SARS-CoV-2
T1 construct: made in house; host or cells: Expi293F cells

[1] = molecular target: T2, SARS-CoV-2 S-protein RBD WT (Severe acute respiratory syndrome coronavirus 2, UniProt P0DTC2); assay type: binding; settings: immobilized heparin, 1:1 Langmuir global fit, 25° C.
T2 construct: made in house; host or cells: Expi293F cells

[2] = tested on: SARS-CoV-2 pseudotyped viral particles (wild-type); assay type: binding

| Compound | inhibition of the S-protein-heparin interaction (FIG. 5) (S-protein RBD (WT)) | ka [1] | kd [1] | IC50 (S-protein RBD (WT); read-out: IC50 against the S-protein RBD binding to immobilized heparin) | inhibition of pseudotyped viral particle binding to heparin surface compared with heparin control [2] |
| --- | --- | --- | --- | --- | --- |
| O=S(=O)(O)c1cc2c(O)c(c1)Cc1cc(S(=O)(=O)O)cc(c1O)Cc1cc(S(=O)(=O)O)cc(c1O)Cc1cc(S(=O)(=O)O)cc(c1O)Cc1cc(S(=O)(=O)O)cc(c1O)Cc1cc(S(=O)(=O)O)cc(c1O)Cc1cc(S(=O)(=O)O)cc(c1O)Cc1cc(S(=O)(=O)O)cc(c1O)C2 [GL-522-Y-1] | more modest inhibition activity |  |  |  |  |
| heparin |  | 1427 1/MS | 2.5 × 10^−4 1/S | 56 nM |  |
| mucopolysaccharide polysulfate [MPS] | potently inhibited |  |  |  | stronger inhibition |
| pentosan polysulfate [PPS] | potently inhibited |  |  |  | stronger inhibition |
| sulfated lactobionic acid | more modest inhibition activity |  |  |  |  |
